We go through 29 compounds from patent US10051861B2, “N-arylamidine-substituted trifluoroethyl sulfide derivatives as acaricides and insecticides” (BAYER CROPSCIENCE AG, priority 2011, dated 2018).

The structures appear in SMILES notation. Where two headings read alike, the source gives them in different places. Marks after values point to notes of the source that are not given here.

Data set [1] concerns greenhouse red spider mite (Tetranychus urticae). Nature of the data set: Tetranychus urticae spray test, OP-resistant (TETRUR), bean leaf disks. In kind it is in vivo. The note with it: for pest or weed control at 500 g/ha: Tetranychus urticae, foliar, 144 h, read-out: efficacy (spider mites killed). As to the method: After 6 days, the effect in % is determined.
The test system of data set [2] is larvae of the mustard beetle (Phaedon cochleariae). The data set can be described thus: Phaedon cochleariae spray test (PHAECO). The note with it: Phaedon cochleariae, 168 h, read-out: effect (beetle larvae killed).
Data set [3] in a line: logP by HPLC on reversed-phase columns (C 18), EEC Directive 79/831 Annex V.A8. In kind it is physicochemical. As to the method: Calibration is carried out using unbranched alkan-2-ones (having from 3 to 16 carbon atoms) with known log P values (the log P values are determined by the retention times using linear interpolation between two successive alkanones).
The mark [4] stands for this setting: application rate 500 g/ha, after 6 days.
[5] abbreviates: reversed-phase C18 HPLC column, pH 2.7, [a] LC-MS, acidic range, pH 2.7, 0.1% aqueous formic acid/acetonitrile, read-out: logP(HCOOH).
Where [6] appears, read: reversed-phase C18 HPLC column, pH 7.8, [b] LC-MS, neutral range, pH 7.8, 0.001 molar aqueous ammonium bicarbonate/acetonitrile, read-out: logP(neutral).

`Cc1cc(F)c(/N=C2\CCCN2c2ccccc2)cc1SCC(F)(F)F` [Ia-78, 2-Fluoro-4-methyl-N-[(2E)-1-phenylpyrrolidin-2-ylidene]-5-[(2,2,2-trifluoroethyl)sulfanyl]aniline]: the pest or weed control at 500 g/ha in data set [1] (setting [4]) and in data set [2] was 100% throughout.

For `N/C(=N/c1cc(SCC(F)(F)F)c(Br)cc1Cl)C(F)(F)F` [Ia-121], the pest or weed control at 500 g/ha in data set [1] (setting [4]) and in data set [2] was 100% throughout.

As to `CN(C)/C(=N/c1cc(SCC(F)(F)F)c(Cl)cc1F)C(F)(F)F` [Ia-35], the pest or weed control at 500 g/ha in data set [1] (setting [4]) and in data set [2] was 100% throughout.

As for `Cc1cc(F)c(/N=C(/NCc2ccc(C(F)(F)F)cc2)C(F)(F)F)cc1[S+]([O-])CC(F)(F)F` (centres unmarked) [Ib-101], the pest or weed control at 500 g/ha in data set [1] (setting [4]) came to 90%; in data set [2], 100%.

Take `Cc1cc(F)c(/N=C2\SCC(=O)N2CC(F)(F)F)cc1SCC(F)(F)F` [Ia-175, 2-({2-Fluoro-4-methyl-5-[(2,2,2-trifluoroethyl)sulfanyl]phenyl}imino)-3-(2,2,2-trifluoroethyl)-1,3-thiazolidin-4-one]: the pest or weed control at 500 g/ha in data set [1] (setting [4]) came to 90%. For the same compound, the chromatographic logP came to 4.09 in data set [3] (setting [5]) and 3.99 in data set [3] (setting [6]).

In the case of `Cc1cc(F)c(/N=C(\N)C2(Cl)CC2F)cc1SCC(F)(F)F` (centres unmarked) [Ia-29], the pest or weed control at 500 g/ha in data set [1] (setting [4]) and in data set [2] was 100% each time.

Regarding `CN(C)/C(=N\c1cc(SCC(F)(F)F)c(Cl)cc1Cl)c1ccccc1Cl` [Ia-207], the pest or weed control at 500 g/ha in data set [1] (setting [4]) was 100%; in data set [2], 83%.

`Cc1cc(F)c(/N=C(/Nc2ccccc2)C(F)(F)F)cc1SCC(F)(F)F` [Ia-96]: in data set [1] (setting [4]), the pest or weed control at 500 g/ha stood at 100%. Besides, the chromatographic logP in data set [3] (setting [5]) and in data set [3] (setting [6]) was 4.37 throughout.

Consider `Cc1cc(F)c(/N=C(\c2ccco2)N(C)C)cc1SCC(F)(F)F` [Ia-166, N′-{2-Fluoro-4-methyl-5-[(2,2,2-trifluoroethyl)sulfanyl]phenyl}-N,N-dimethylfuran-2-carboximidamide], for which, in data set [1] (setting [4]), the pest or weed control at 500 g/ha stood at 100%. In addition, the values for the chromatographic logP in data set [3] (setting [5]) and in data set [3] (setting [6]) were 1.57 and 3.94, respectively.

In the case of `CN/C(=N/c1cc([S+]([O-])CC(F)(F)F)c(Cl)cc1Cl)C(F)(F)F` (centres unmarked) [Ib-21], in data set [1] (setting [4]), the pest or weed control at 500 g/ha is 100%. Moreover, the chromatographic logP in data set [3] (setting [5]) and in data set [3] (setting [6]) was 3.32 throughout.

Regarding `Cc1cc(Cl)c(/N=C(\N)C2(Cl)CC2)cc1[S+]([O-])CC(F)(F)F` (centres unmarked) [Ib-27], the pest or weed control at 500 g/ha in data set [1] (setting [4]) and in data set [2] was 100% in each case.

As to `CN/C(=N\c1cc([S+]([O-])CC(F)(F)F)c(C)cc1Cl)C(F)(F)F` (centres unmarked) [Ib-56], the pest or weed control at 500 g/ha in data set [1] (setting [4]) and in data set [2] was 100% in each case.

On to `COc1ccc(N/C(=N/c2cc([S+]([O-])CC(F)(F)F)c(C)cc2F)C(F)(F)F)cc1` (centres unmarked) [Ib-86], for which, in data set [1] (setting [4]), the pest or weed control at 500 g/ha is 100%. The values for the chromatographic logP in data set [3] (setting [5]) and in data set [3] (setting [6]) were 3.04 and 3.05, respectively.

Consider `Cc1cc(F)c(/N=C(\N)c2cnccn2)cc1[S+]([O-])CC(F)(F)F` (centres unmarked) [Ib-62, N′-{2-Fluoro-4-methyl-5-[(2,2,2-trifluoroethyl)sulfinyl]phenyl}pyrazine-2-carboximidamide], for which the pest or weed control at 500 g/ha in data set [1] (setting [4]) worked out at 100%. The results for the chromatographic logP in data set [3] (setting [5]) and in data set [3] (setting [6]) were 0.84 and 1.77, respectively.

With `Cc1cc(F)c(/N=C(/NCc2ccc(C(F)(F)F)cc2)C(F)(F)F)cc1SCC(F)(F)F` [Ia-89], the pest or weed control at 500 g/ha in data set [1] (setting [4]) was found to be 100%. For the same compound, the chromatographic logP in data set [3] (setting [5]) and in data set [3] (setting [6]) was 5.15 in each case.

As for `CN/C(=N/c1cc(SCC(F)(F)F)c(C)cc1F)c1ccc(C(F)(F)F)cc1` [Ia-250, N′-{2-Fluoro-4-methyl-5-[(2,2,2-trifluoroethyl)sulfanyl]phenyl}-N-methyl-4-(trifluoromethyl)benzenecarboximidamide], the pest or weed control at 500 g/ha in data set [1] (setting [4]) amounted to 90%. In addition, the chromatographic logP in data set [3] (setting [5]) stood at 1.96; in data set [3] (setting [6]) it was 4.08.

As for `[O-][S+](CC(F)(F)F)c1cc(/N=C(\NCC(F)(F)F)C2CC2)c(Cl)cc1Cl` (centres unmarked) [Ib-83], the pest or weed control at 500 g/ha in data set [1] (setting [4]) and in data set [2] was 100% throughout.

As for `N/C(=N/c1cc([S+]([O-])CC(F)(F)F)c(Cl)cc1Br)C(F)(F)F` (centres unmarked) [Ib-57], the pest or weed control at 500 g/ha in data set [1] (setting [4]) and in data set [2] was 100% in each case.

Consider `N/C(=N\c1cc(SCC(F)(F)F)c(Cl)cc1Cl)C1CC1` [Ia-139], for which the pest or weed control at 500 g/ha in data set [1] (setting [4]) and in data set [2] was 100% in each case.

For the compound `COc1ccc(N/C(=N/c2cc(SCC(F)(F)F)c(C)cc2F)C(F)(F)F)cc1` [Ia-129], in data set [1] (setting [4]), the pest or weed control at 500 g/ha worked out at 100%. Further, the chromatographic logP in data set [3] (setting [5]) and in data set [3] (setting [6]) was 4.2 in each case.

For the compound `Cc1cc(F)c(/N=C(\N)c2cnccn2)cc1SCC(F)(F)F` [Ia-117, N′-{2-Fluoro-4-methyl-5-[(2,2,2-trifluoroethyl)sulfanyl]phenyl}pyrazine-2-carboximidamide], in data set [1] (setting [4]), the pest or weed control at 500 g/ha worked out at 90%. The chromatographic logP in data set [3] (setting [5]) amounted to 1.24.

For `CN/C(=N/c1cc(SCC(F)(F)F)c(C)cc1F)c1ccc(OC)cc1` [Ia-165], in data set [1] (setting [4]), the pest or weed control at 500 g/ha worked out at 100%. The chromatographic logP was determined as 1.68 in data set [3] (setting [5]) and 3.49 in data set [3] (setting [6]).

For the compound `Cc1cc(F)c(/N=C(\NCC(F)(F)F)C2CC2)cc1SCC(F)(F)F` [Ia-145, N′-{2-fluoro-4-methyl-5-[(2,2,2-trifluoroethyl)sulfanyl]phenyl}-N-(2,2,2-trifluoroethyl)cyclopropanecarboximidamide], the pest or weed control at 500 g/ha in data set [1] (setting [4]) is 100%. Moreover, the values for the chromatographic logP in data set [3] (setting [5]) and in data set [3] (setting [6]) were 1.99 and 4.12, respectively.

Consider `Cc1cc(F)c(/N=C(\NCC2CCC(C(F)(F)F)CC2)C2CC2)cc1SCC(F)(F)F` (centres unmarked) [Ia-251], for which, in data set [1] (setting [4]), the pest or weed control at 500 g/ha turned out to be 90%. In addition, in data set [3] (setting [5]), the chromatographic logP amounted to 2.23.

In the case of `Cc1cc(F)c(/N=C(/Nc2ccccc2)C(F)(F)F)cc1[S+]([O-])CC(F)(F)F` (centres unmarked) [Ib-49], the pest or weed control at 500 g/ha in data set [1] (setting [4]) was determined as 100%. In addition, the values for the chromatographic logP in data set [3] (setting [5]) and in data set [3] (setting [6]) were 3.22 and 3.12, respectively.

Take `Cc1cc(F)c(/N=C(/NCC2CC2)C(F)(F)F)cc1SCC(F)(F)F` [Ia-41]: in data set [1] (setting [4]), the pest or weed control at 500 g/ha came to 100%. The chromatographic logP in data set [3] (setting [5]) was 4.62.

Turning to `Cc1cc(F)c(/N=C2\SCC(=O)N2CC(F)(F)F)cc1[S+]([O-])CC(F)(F)F` (centres unmarked) [Ib-71, 2-({2-Fluoro-4-methyl-5-[(2,2,2-trifluoroethyl)sulfinyl]phenyl}imino)-3-(2,2,2-trifluoroethyl)-1,3-thiazolidin-4-one], the pest or weed control at 500 g/ha in data set [1] (setting [4]) came to 100%. Also, the figures for the chromatographic logP in data set [3] (setting [5]) and in data set [3] (setting [6]) were 2.93 and 2.87, respectively.

As to `Cc1cc(F)c(/N=C2/NCCCS2)cc1SCC(F)(F)F` [Ia-278, 2-fluoro-4-methyl-N-[1,3-thiazinan-2-ylidene]-5-[(2,2,2-trifluoroethyl)sulfanyl]anilinium chloride], in data set [1], the pest or weed control at 500 g/ha worked out at 90%. Also, the chromatographic logP in data set [3] ([a] LC-MS, acidic range, pH 2.7, 0.1% aqueous formic acid/acetonitrile, read-out: logP(HCOOH)) came to 1.34.

In the case of `Cc1cc(F)c(N=C(NS(C)(=O)=O)C(F)(F)F)cc1SCC(F)(F)F` [Ia-11], the “efficacy (spider mites killed)” value in data set [1] (setting [4]) turned out to be 100%. In addition, in data set [3] (pH 2.7), the “logP(HCOOH)” value is 3.05^[a].
